ChEMBL document CHEMBL1255316, “A peptide with a ProGln C terminus in the human saliva peptidome exerts bactericidal activity against Propionibacterium acnes” (Antimicrob Agents Chemother, 2008)
The source made the active and inactive calls. No cut-off for these calls is given here. Residues, ends and D or L forms follow the SMILES beside them.

Key:
[1] = system: Cell membrane; assay: Binding affinity to membrane of Propionibacterium acnes ATCC 6919 at 10 uM after 1 hr by fluorescence microscopy under anaerobic condition; type: functional; settings: Cutibacterium acnes, Plasma membrane
[2] = system: Cutibacterium acnes; assay: Antibacterial activity against Propionibacterium acnes assessed as attenuation of colonization at 10 uM incubated with compound for 3 hrs measured after 2 days; type: functional, organism-based
[3] = system: Porphyromonas gingivalis; assay: Binding affinity to membrane of Porphyromonas gingivalis ATCC 33277 at 10 uM after 1 hr by fluorescence microscopy under anaerobic condition; type: functional
[4] = system: Cell membrane; assay: Binding affinity to membrane of Propionibacterium acnes ATCC 6919 at 1 uM after 1 hr by fluorescence microscopy under anaerobic condition; type: functional; settings: Cutibacterium acnes, Plasma membrane
[5] = system: Cutibacterium acnes; assay: Antibacterial activity against Propionibacterium acnes assessed as attenuation of colonization at 100 uM incubated with compound for 3 hrs measured after 2 days; type: functional, organism-based
[6] = system: Cutibacterium acnes; assay: Antibacterial activity against Propionibacterium acnes assessed as attenuation of colonization at 1 uM incubated with compound for 3 hrs measured after 2 days; type: functional, organism-based

| SMILES | Activity [1] | Activity [2] | Activity [3] | Activity [4] | Activity [5] | Activity [6] |
| --- | --- | --- | --- | --- | --- | --- |
| N=C(N)NCCC[C@H](NC(=O)[C@H](CCCCN)NC(=O)CNC(=O)[C@@H](N)CS)C(=O)N[C@@H](CCCCN)C(=O)O (H-CGKRK-OH) | inactive | – | – | – | – | – |
| N=C(N)NCCC[C@H](NC(=O)CNC(=O)CNC(=O)[C@H](CCC(N)=O)NC(=O)[C@@H]1CCCN1C(=O)[C@@H]1CCCN1C(=O)[C@@H]1CCCN1C(=O)CN)C(=O)N1CCC[C@H]1C(=O)N[C@@H](CCC(N)=O)C(=O)O (H-GPPPQGGRPQ-OH) | Active | Active | inactive | Active | Active | Active |
